Laboratory results published in US9365614B2, “IAP BIR domain binding compounds” (priority 2006, dated 2016).
Where two headings read alike, the source gives them in different places.

Experiments:
[1] = tested on: MDA-MB231 cells; assay: Survival MTT assay, MDA-MB-231; format: cell-based; details: Homo sapiens, 72 h
Method: (§1) One day prior the treatment with compound, 2000 to 4000 cells per well were plated in a tissue culture treated 96 well format dish with 100 ul of media and incubated at 37° C., 5% CO2. On the day of compound treatment, compounds were diluted with cell culture media to a working stock concentration of 2×. 100 uL of diluted compound were then added to each well. The treated plate was incubated for 72 h at 37° C., 5% CO2. Upon incubation, the cell viability was assessed as followed 20 uL of MTT reagent at 5 mg/ml were added per well to cell plate. The plate was incubated for 2 h at 37° C. in presence of 5% CO2. The supernatant was then removed from the plate and 100 uL of isopropanol were added. The absorbance was measured in a TECAN spectrophotometer at 570 nm. The percentage of viability was expressed in percentage of the signal obtained with non treated cells.

[2] = tested on: SKOV-3 cells; assay: Survival MTT assay, SKOV-3; format: cell-based; details: Homo sapiens, SK-OV-3, 72 h
Method: as §1

[3] = tested on: HEY (ovarian) cells; assay: Survival assay with TRAIL, HEY; format: cell-based; details: in the presence of TRAIL (1-3 ng/mL)
Method: (§2) Survival assays were performed on various cell lines including MDA-MB-231, SKOV3, H460, PC3, HCT-116, and SW480 cells. Cells were seeded in 96 well plates at a respective density of 5000 and 2000 cells per well and incubated at 37° C. in presence of 5% CO2 for 24 hours. Selected compounds were diluted into the media at various concentration ranging from 0.01 uM up to 100 uM. Diluted compounds were added onto the MDA-MB-231 cells. For the MDA-MB-231 SKOV3, H460, PC3, HCT-116, and SW480 cells, the compounds were added either alone or in presence of 1-3 ng/ml of TRAIL. After 72 hours cellular viability was evaluated by MTS based assays. A solution of [3-(4,5-dimethylthiazol-2-yl)-5-(3-carboxymethoxyphenyl)-2-(4-sulfophenyl)-2H-tetrazolium, inner salt; MTS] was added onto cells for a period of 1 to 4 hours. Upon incubation the amount of converted MTS was evaluated using a Tecan spectrophotometer set at 570 nm.

[4] = tested on: PC3 cells; assay: Survival assay (MTS), PC3; format: cell-based; details: Homo sapiens, PC-3; in the presence of TRAIL (1-3 ng/ml)
Method: as §2

[5] = tested on: OVCAR-3 (ovarian) cells; assay: Survival assay with TRAIL, OVCAR-3; format: cell-based; details: Homo sapiens, in the presence of TRAIL (1-3 ng/mL)
[6] = tested on: H460 (lung) cells; assay: Survival assay with TRAIL, H460; format: cell-based; details: Homo sapiens, NCI-H460; in the presence of TRAIL (1-3 ng/mL)
Method: MDA-MD-231 (breast) and H460 (lung) cancer cells were cultured in RPMI1640 media supplemented with 10% FBS and 100 units/mL of Penicillin and Steptomycin.
as §2

[7] = target: T1, XIAP linker BIR2-BIR3-ring (GST-linker BIR 2 BIR3Ring) (Homo sapiens, UniProt P98170); assay: Fluorescence polarization competition assay, BIR2-BIR3-ring, probe P2; format: binding; details: BIR2-BIR3-ring FP assay
T1 construct: made in house; host or cells: E. coli DH5-alpha
Description: GST-linker BIR 2 BIR3Ring: XIAP coding sequence from amino acids 93-497 cloned into PGex4T1 via BamH1 and XhoI. Amino acids 93-497 were amplified from full length XIAP in pGex4t3, using the primers: […] (SEQ ID NO: 7) and GCTGCATGTGTGTCAGAGG (SEQ ID NO: 8), using standard PCR conditions. The PCR fragment was TA cloned into pCR-2.1 (invitrogen). Linker BIR 2 BIR 3Ring was subcloned into pGex4T1 by BamHI/XhoI digestion. The plasmid was transformed into E. coli DH5a for use in protein expression and purification.
For all assays, the fluorescence and fluorescence-polarization was evaluated using a Tecan Polarion instrument with the excitation filter set at 485 nm and the emission filter set at 535 nm. […] Upon establishing these conditions, the compounds potency (IC50) and selectivity, was assessed in the presence of a fix defined-amount of target protein and fluorescent probe and a 10 point serial dilution of the selected compounds. […] Auto-fluorescence for each compound was first assessed by performing a reading of the compound/BSA solution alone. Then 25 uL of the fluorescein probe diluted into 50 mM MES containing 0.05 mg/ml BSA were added and a reading to detect quenching of fluorescein signal done. […]
The ki of various compounds in the BIR2-BIR3-ring FP assay, using probe P2, was determined as described above.

[8] = tested on: HELA (cervical) cells; assay: Survival assay with TRAIL, HELA; format: cell-based; details: Homo sapiens, in the presence of TRAIL (1-3 ng/mL)
Method: as §2

[9] = tested on: HCT116 (colon) cells; assay: Survival assay with TRAIL, HCT116; format: cell-based; details: Homo sapiens, HCT-116; in the presence of TRAIL (1-3 ng/mL)
Method: as §2

T1 sequence (P98170 93-497): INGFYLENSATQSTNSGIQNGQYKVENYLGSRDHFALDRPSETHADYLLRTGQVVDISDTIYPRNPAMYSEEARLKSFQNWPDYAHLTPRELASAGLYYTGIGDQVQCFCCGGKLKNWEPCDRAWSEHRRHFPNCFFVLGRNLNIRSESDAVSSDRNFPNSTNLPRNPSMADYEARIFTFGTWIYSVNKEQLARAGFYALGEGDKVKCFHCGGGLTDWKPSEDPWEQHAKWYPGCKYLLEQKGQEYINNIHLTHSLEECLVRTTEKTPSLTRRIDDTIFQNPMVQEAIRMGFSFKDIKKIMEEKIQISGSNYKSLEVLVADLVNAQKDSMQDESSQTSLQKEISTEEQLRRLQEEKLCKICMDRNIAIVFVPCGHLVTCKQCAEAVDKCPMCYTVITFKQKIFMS

CC(C)(C)[C@H](NC(=O)[C@@H](N)CO)C(=O)N1C[C@@H](OCC#CC#CCO[C@H]2C[C@@H](C(=O)N[C@@H]3CCCc4ccccc43)N(C(=O)[C@@H](NC(=O)[C@@H](N)CO)C(C)(C)C)C2)C[C@H]1C(=O)N[C@@H]1CCCc2ccccc21 [Compound 5]
EC50 [1]: > 1000 nM

CN[C@@H](C)C(=O)N[C@H](C(=O)N1C[C@@H](OCC#CC#CCO[C@H]2C[C@@H](C(=O)N[C@@H]3CCCc4ccccc43)N(C(=O)[C@@H](NC(=O)[C@H](C)NC)C(C)(C)C)C2)C[C@H]1C(=O)N[C@@H]1CCCc2ccccc21)C(C)(C)C [Compound 1]
EC50 ([2]; read-out: SKOV-3 EC50): < 50 nM
EC50 [1]: < 50 nM

CN[C@@H](C)C(=O)N[C@H](C(=O)N1C[C@@H](NC(=O)c2ccc(C(=O)N[C@H]3C[C@@H](C(=O)N[C@@H]4CCCc5ccccc54)N(C(=O)[C@@H](NC(=O)[C@H](C)NC)C(C)(C)C)C3)cc2)C[C@H]1C(=O)N[C@@H]1CCCc2ccccc21)C(C)(C)C [Compound 3]
EC50 [3]: < 1000 nM
EC50 [4]: < 1000 nM
EC50 [5]: < 1000 nM
EC50 ([2]; read-out: EC50 against SKOV3): 1 nM
EC50 [6]: < 1000 nM
Ki [7]: < 100 nM
EC50 [8]: < 1000 nM
EC50 [1]: < 50 nM
EC50 [9]: < 1000 nM

CN[C@@H](C)C(=O)N[C@H](C(=O)N1C[C@@H](NC(=O)c2ccc(C(=O)N[C@H]3C[C@@H](C(=O)NCc4cccc(-c5ccccc5)c4)N(C(=O)[C@@H](NC(=O)[C@H](C)NC)C(C)(C)C)C3)cc2)C[C@H]1C(=O)NCc1cccc(-c2ccccc2)c1)C(C)(C)C [Compound 48]
EC50 ([2]; read-out: SKOV-3 EC50): < 250 nM

CN[C@@H](C)C(=O)N[C@H](C(=O)N1C[C@@H](NC(=O)c2ccc(C(=O)N[C@H]3C[C@@H](C(=O)N[C@@H](C)c4ccccc4)N(C(=O)[C@@H](NC(=O)[C@H](C)NC)C(C)(C)C)C3)cc2)C[C@H]1C(=O)N[C@@H](C)c1ccccc1)C(C)(C)C [Compound 50]
EC50 ([2]; read-out: SKOV-3 EC50): < 250 nM

CN[C@@H](C)C(=O)N[C@H](C(=O)N1C[C@@H](NC(=O)c2ccc(C(=O)N[C@H]3C[C@@H](CN(CCc4ccc(F)cc4)C(C)=O)N(C(=O)[C@@H](NC(=O)[C@H](C)NC)C(C)(C)C)C3)cc2)C[C@H]1CN(CCc1ccc(F)cc1)C(C)=O)C(C)(C)C [Compound 28]
EC50 ([2]; read-out: SKOV-3 EC50): < 50 nM

CN[C@@H](C)C(=O)N[C@H](C(=O)N1C[C@@H](NC(=O)c2ccc(C(=O)N[C@H]3C[C@@H](C(=O)NCc4cccc5ccccc45)N(C(=O)[C@@H](NC(=O)[C@H](C)NC)C(C)(C)C)C3)cc2)C[C@H]1C(=O)NCc1cccc2ccccc12)C(C)(C)C [Compound 32]
EC50 ([2]; read-out: SKOV-3 EC50): < 250 nM

CN[C@@H](C)C(=O)N[C@H](C(=O)N1C[C@@H](NC(=O)c2ccc(C(=O)N[C@H]3C[C@@H](CN(CCc4ccc(F)cc4)S(C)(=O)=O)N(C(=O)[C@@H](NC(=O)[C@H](C)NC)C(C)(C)C)C3)cc2)C[C@H]1CN(CCc1ccc(F)cc1)S(C)(=O)=O)C(C)(C)C [Compound 30]
EC50 ([2]; read-out: EC50 against SKOV3): 188 nM
EC50 ([2]; read-out: SKOV-3 EC50): > 1000 nM

CN[C@@H](C)C(=O)N[C@H](C(=O)N1C[C@@H](NC(=O)c2ccc(C(=O)N[C@H]3C[C@@H](CN(CCc4ccccc4)C(=O)c4ccccc4)N(C(=O)[C@@H](NC(=O)[C@H](C)NC)C(C)(C)C)C3)cc2)C[C@H]1CN(CCc1ccccc1)C(=O)c1ccccc1)C(C)(C)C [Compound 27]
EC50 ([2]; read-out: SKOV-3 EC50): < 250 nM

CN[C@@H](C)C(=O)N[C@H](C(=O)C1C[C@@H](NC(=O)CCCCCCCCC(=O)N[C@H]2C[C@@H](C(=O)N[C@@H]3CCCc4ccccc43)N(C(=O)[C@@H](NC(=O)[C@H](C)NC)C(C)(C)C)C2)C[C@H]1C(=O)N[C@@H]1CCCc2ccccc21)C(C)(C)C (some centres unmarked) [Compound 2]
EC50 ([2]; read-out: SKOV-3 EC50): < 50 nM
EC50 [1]: < 50 nM

CN[C@@H](C)C(=O)N[C@H](C(=O)N1C[C@@H](NC(=O)c2ccc(C(=O)N[C@H]3C[C@@H](C(=O)N[C@@H](CO)c4ccccc4)N(C(=O)[C@@H](NC(=O)[C@H](C)NC)C(C)(C)C)C3)cc2)C[C@H]1C(=O)N[C@@H](CO)c1ccccc1)C(C)(C)C [Compound 54]
EC50 ([2]; read-out: SKOV-3 EC50): > 1000 nM

CN[C@@H](C)C(=O)N[C@H](C(=O)N1C[C@@H](NC(=O)c2ccc(Oc3ccc(C(=O)N[C@H]4C[C@@H](C(=O)N[C@@H]5CCCc6ccccc65)N(C(=O)[C@@H](NC(=O)[C@H](C)NC)C(C)(C)C)C4)cc3)cc2)C[C@H]1C(=O)N[C@@H]1CCCc2ccccc21)C(C)(C)C [Compound 16]
EC50 ([2]; read-out: SKOV-3 EC50): < 50 nM
